From patent US11051515B2, “3-acyl-benzamides and their use as herbicides” (Bayer Aktiengesellschaft, priority 2017, dated 2021)

Legend:
ALOMY = experiment: Pre-emergence action against ALOMY; assay type: in vivo, Alopecurus myosuroides; conditions: dosage 320 g/ha; pre-emergence; scored visually after 3 weeks vs untreated controls; 100% = plants have died, 0% = like control plants
How it was run: (§1)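 Seeds sown in sandy loam in wood-fiber pots and covered with soil. Greenhouse growth; visual damage scored after 3 weeks versus untreated controls (100% = dead, 0% = like control).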

AVEFA = experiment: Pre-emergence action against AVEFA; assay type: in vivo, Avena fatua; conditions: dosage 320 g/ha, scored visually after 3 weeks vs untreated controls
How it was run: as §1

CYPES [1] = experiment: Pre-emergence action against CYPES; assay type: in vivo, Cyperus esculentus; conditions: pre-emergence, dosage 320 g/ha, scored visually after 3 weeks vs untreated controls
How it was run: as §1

ECHCG [2] = experiment: Pre-emergence action against ECHCG; assay type: in vivo, Echinochloa crus-galli; conditions: pre-emergence, dosage 320 g/ha, scored visually after 3 weeks vs untreated controls
How it was run: as §1

LOLMU = experiment: Pre-emergence action against LOLMU; assay type: in vivo, Lolium multiflorum; conditions: dosage 320 g/ha, scored visually after 3 weeks vs untreated controls
From the text: Seeds of monocotyledonous and dicotyledonous weed plants and crop plants are laid out in sandy loam soil in wood-fiber pots and covered with soil. The compounds of the invention, formulated in the form of wettable powders (WP) or as emulsion concentrates (EC), are then applied to the surface of the covering soil in the form of an aqueous suspension or emulsion at a water application rate equating to […], with addition of 0.2% wetting agent. After the treatment, the pots are placed in a greenhouse and kept under good growth conditions for the trial plants. The damage to the test plants is scored visually after a test period of 3 weeks by comparison with untreated controls (herbicidal activity in percent (%): 100% activity=the plants have died, 0% activity=like control plants).

SETVI [3] = experiment: Pre-emergence action against SETVI; assay type: in vivo, Setaria viridis; conditions: pre-emergence, dosage 320 g/ha, scored visually after 3 weeks vs untreated controls
How it was run: as §1

ABUTH [4] = experiment: Pre-emergence action against ABUTH; assay type: in vivo, Abutilon theophrasti; conditions: pre-emergence, dosage 320 g/ha, scored visually after 3 weeks vs untreated controls
How it was run: as §1

AMARE [5] = experiment: Pre-emergence action against AMARE; assay type: in vivo, Amaranthus retroflexus; conditions: pre-emergence, dosage 320 g/ha, scored visually after 3 weeks vs untreated controls
How it was run: as §1

MATIN [6] = experiment: Pre-emergence action against MATIN; assay type: in vivo, Matricaria inodora; conditions: Dosage 320 g/ha, pre-emergence
How it was run: as §1

STEME [7] = experiment: Pre-emergence action against STEME; assay type: in vivo, Stellaria media; conditions: Dosage 320 g/ha, pre-emergence
How it was run: as §1

VIOTR [8] = experiment: Pre-emergence action against VIOTR; assay type: in vivo, Viola tricolor; conditions: Dosage 320 g/ha, pre-emergence
How it was run: as §1

VERPE [9] = experiment: Pre-emergence action against VERPE; assay type: in vivo, Veronica persica; conditions: Dosage 320 g/ha, pre-emergence
How it was run: as §1

CYPES [10] = experiment: Post-emergence action against CYPES; assay type: in vivo, Cyperus esculentus; conditions: post-emergence, dosage 80 g/ha, visual assessment about 3 weeks after treatment vs untreated controls
How it was run: (§2)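 Weeds grown in sandy loam in greenhouse, treated at one-leaf stage (2–3 weeks after sowing) with WP or EC formulations sprayed as aqueous suspension/emulsion at 600 to […] water with 0.2% wetting agent. Visual rating after about 3 weeks versus untreated controls, as % herbicidal action (100% = plants dead, 0% = like control).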

ECHCG [11] = experiment: Post-emergence action against ECHCG; assay type: in vivo, Echinochloa crus-galli; conditions: post-emergence, dosage 80 g/ha, visual assessment about 3 weeks after treatment vs untreated controls
How it was run: as §2

ABUTH [12] = experiment: Post-emergence action against ABUTH; assay type: in vivo, Abutilon theophrasti; conditions: post-emergence, dosage 80 g/ha, visual assessment about 3 weeks after treatment vs untreated controls
How it was run: as §2

AMARE [13] = experiment: Post-emergence action against AMARE; assay type: in vivo, Amaranthus retroflexus; conditions: post-emergence, dosage 80 g/ha, visual assessment about 3 weeks after treatment vs untreated controls
How it was run: as §2

MATIN [14] = experiment: Post-emergence action against MATIN; assay type: in vivo, Matricaria inodora; conditions: post-emergence, dosage 80 g/ha, visual assessment about 3 weeks after treatment vs untreated controls
How it was run: as §2

PHBPU = experiment: Post-emergence action against PHBPU; assay type: in vivo, Pharbitis purpurea; conditions: post-emergence, dosage 80 g/ha
How it was run: as §2

POLCO [15] = experiment: Post-emergence action against POLCO; assay type: in vivo, Polygonum convolvulus; conditions: post-emergence, dosage 80 g/ha
How it was run: as §2

STEME [16] = experiment: Post-emergence action against STEME; assay type: in vivo, Stellaria media; conditions: post-emergence, dosage 80 g/ha
How it was run: as §2

VIOTR [17] = experiment: Post-emergence action against VIOTR; assay type: in vivo, Viola tricolor; conditions: post-emergence, dosage 80 g/ha
How it was run: as §2

VERPE [18] = experiment: Post-emergence action against VERPE; assay type: in vivo, Veronica persica; conditions: dosage 80 g/ha
How it was run: as §2

POLCO [19] = experiment: Pre-emergence action against POLCO; assay type: in vivo, Polygonum convolvulus; conditions: Dosage 320 g/ha, pre-emergence
How it was run: as §1

SETVI [20] = experiment: Post-emergence action against SETVI; assay type: in vivo, Setaria viridis; conditions: post-emergence, dosage 80 g/ha, visual assessment about 3 weeks after treatment vs untreated controls
How it was run: as §2

Structure (SMILES) | Pre-emergence action against ALOMY (herbicidal activity in percent) (ALOMY) | Pre-emergence action against CYPES (herbicidal activity) (CYPES [1]) | Pre-emergence action against ECHCG (herbicidal activity) (ECHCG [2]) | Pre-emergence action against LOLMU (herbicidal activity) (LOLMU) | SETVI (Table B8, pre-emergence herbicidal activity) (SETVI [3]) | Pre-emergence action against ABUTH (herbicidal activity) (ABUTH [4]) | Pre-emergence action against AMARE (herbicidal activity) (AMARE [5]) | Pre-emergence action against MATIN (MATIN [6]) | Pre-emergence action against STEME (STEME [7]) | Pre-emergence action against VIOTR (VIOTR [8]) | Pre-emergence action against VERPE (VERPE [9]) | Post-emergence action against CYPES (herbicidal action in percent) (CYPES [10]) | Post-emergence action against ECHCG (herbicidal action in percent) (ECHCG [11]) | Post-emergence action against ABUTH (herbicidal action in percent) (ABUTH [12]) | Post-emergence action against AMARE (herbicidal action in percent) (AMARE [13]) | Post-emergence action against MATIN (herbicidal action in percent) (MATIN [14]) | Post-emergence action against PHBPU (PHBPU) | Post-emergence action against POLCO (POLCO [15]) | Post-emergence action against STEME (STEME [16]) | Post-emergence action against VIOTR (VIOTR [17]) | other results
CCn1nnnc1NC(=O)c1ccc(Cl)c(C(C)=O)c1Cl [2-114] | 80% | 90% | 100% | 80% | 90% | 100% | 100% | 90% | 90% | 100% | 90% | 90% | 90% | 90% | 100% | 80% | 90 | 90 | 100 | 100 | Pre-emergence action against AVEFA (herbicidal activity) (AVEFA): 80%; Post-emergence action against VERPE (VERPE [18]): 80
CCn1nnnc1NC(=O)c1ccc(C(F)(F)F)c(C(C)=O)c1OC [2-48] | 90% | 100% | 100% | 80% | 100% | 100% | 100% | 100% | 90% | 100% | 100% | 100% | 90% | 100% | 90% | 100% | 100 | 80 | 100 | 100 | Pre-emergence action against POLCO (POLCO [19]): 90%; Post-emergence action against SETVI (herbicidal action in percent) (SETVI [20]): 80%; Post-emergence action against VERPE (VERPE [18]): 80
